Reference: ChEMBL document CHEMBL1152853, “Synthesis and biological evaluation of novel symmetry bis-enediynes” (2009)
Active and inactive are the calls of the source. No cut-off for these calls is given here.

Key:
HT-29 = experiment: Cytotoxicity against human HT-29 cells; type: functional
SNB-75 = experiment: Cytotoxicity against human SNB75 cells; type: functional
NCI-H460 = experiment: Cytotoxicity against human NCI-H460 cells; type: functional
T47D = experiment: Cytotoxicity against human T47D cells; type: functional
MDA-MB-435 = experiment: Cytotoxicity against human MDA-MB-435 cells; type: functional
M14 = experiment: Cytotoxicity against human M14 cells; type: functional
SN12C = experiment: Cytotoxicity against human SN12C cells; type: functional
NCI-H23 = experiment: Cytotoxicity against human NCI-H23 cells; type: functional
K562 [1] = experiment: Cell cycle arrest in human K562 cells assessed as accumulation in G2/M phase at 20 uM after 24 hrs by flow cytometry analysis; type: functional
DU-145 = experiment: Cytotoxicity against human DU145 cells; type: functional
K562 [2] = experiment: Cell cycle arrest in human K562 cells assessed as accumulation in G2/M phase at 10 uM after 24 hrs by flow cytometry analysis; type: functional
SK-MEL-5 = experiment: Cytotoxicity against human SK-MEL-5 cells; type: functional
SF-539 = experiment: Cytotoxicity against human SF539 cells; type: functional
U-251 = experiment: Cytotoxicity against human U251 cells; type: functional
A549 = experiment: Cytotoxicity against human A549 cells; type: functional
BT-549 = experiment: Cytotoxicity against human BT549 cells; type: functional
HL-60 = experiment: Cytotoxicity against human HL60 cells; type: functional
OVCAR-3 = experiment: Cytotoxicity against human OVCAR-3 cells; type: functional
UO-31 = experiment: Cytotoxicity against human UO31 cells; type: functional
EKVX = experiment: Cytotoxicity against human EKVX cells; type: functional
UACC-62 = experiment: Cytotoxicity against human UACC62 cells; type: functional
SNB-19 = experiment: Cytotoxicity against human SNB19 cells; type: functional
COLO 205 = experiment: Cytotoxicity against human COLO205 cells; type: functional
SK-MEL-28 = experiment: Cytotoxicity against human SK-MEL-28 cells; type: functional
K562 [3] = experiment: Cell cycle arrest in human K562 cells assessed as accumulation in G0/G1 phase at 50 uM after 24 hrs by flow cytometry analysis; type: functional
OVCAR-5 = experiment: Cytotoxicity against human OVCAR5 cells; type: functional
NCI/ADR-RES = experiment: Cytotoxicity against human NCI/ADR-RES cells; type: functional
SF-295 = experiment: Cytotoxicity against human SF295 cells; type: functional
K562 [4] = experiment: Cell cycle arrest in human K562 cells assessed as accumulation in S phase at 50 uM after 24 hrs by flow cytometry analysis; type: functional
786-0 = experiment: Cytotoxicity against human 786-0 cells; type: functional
ACHN = experiment: Cytotoxicity against human ACHN cells; type: functional
K562 [5] = experiment: Cell cycle arrest in human K562 cells assessed as accumulation in Sub-G1 phase at 20 uM after 24 hrs by flow cytometry analysis; type: functional
K562 [6] = experiment: Cytotoxicity against human K562 cells; type: functional
K562 [7] = experiment: Cell cycle arrest in human K562 cells assessed as accumulation in G0/G1 phase at 20 uM after 24 hrs by flow cytometry analysis; type: functional
[8] = Cytotoxicity against human […] cells; type: functional
HOP-62 = experiment: Cytotoxicity against human HOP62 cells; type: functional
HCT-116 = experiment: Cytotoxicity against human HCT116 cells; type: functional
K562 [9] = experiment: Cell cycle arrest in human K562 cells assessed as accumulation in Sub-G1 phase at 50 uM after 24 hrs by flow cytometry analysis; type: functional
[10] = Cytotoxicity against human Hs 578T cells; type: functional
MCF7 = experiment: Cytotoxicity against human MCF7 cells; type: functional
CAKI-1 = experiment: Cytotoxicity against human Caki1 cells; type: functional
K562 [11] = experiment: Cell cycle arrest in human K562 cells assessed as accumulation in S phase at 10 uM after 24 hrs by flow cytometry analysis; type: functional
OVCAR-4 = experiment: Cytotoxicity against human OVCAR4 cells; type: functional
SK-OV-3 = experiment: Cytotoxicity against human SKOV3 cells; type: functional
LOX IMVI = experiment: Cytotoxicity against human LOXIMVI cells; type: functional
SW-620 = experiment: Cytotoxicity against human SW620 cells; type: functional
HCT-15 = experiment: Cytotoxicity against human HCT15 cells; type: functional
K562 [12] = experiment: Cell cycle arrest in human K562 cells assessed as accumulation in Sub-G1 phase at 10 uM after 24 hrs by flow cytometry analysis; type: functional
K562 [13] = experiment: Cell cycle arrest in human K562 cells assessed as accumulation in G0/G1 phase at 10 uM after 24 hrs by flow cytometry analysis; type: functional
SF-268 = experiment: Cytotoxicity against human SF268 cells; type: functional
MOLT-4 = experiment: Cytotoxicity against human MOLT4 cells; type: functional
MDA-MB-231 = experiment: Cytotoxicity against human MDA-MB-231 cells; type: functional
NCI-H522 = experiment: Cytotoxicity against human NCI-H522 cells; type: functional
K562 [14] = experiment: Inhibition of G2/M phase related Cyclin A protein expression in human K562 cells at 20 uM by Western blotting analysis; type: functional, cell-based
K562 [15] = experiment: Cell cycle arrest in human K562 cells assessed as accumulation in G2/M phase at 50 uM after 24 hrs by flow cytometry analysis; type: functional
KM12 = experiment: Cytotoxicity against human KM12 cells; type: functional
CCRF-CEM = experiment: Cytotoxicity against human CCRF-CEM cells; type: functional
K562 [16] = experiment: Cell cycle arrest in human K562 cells assessed as accumulation in S phase at 20 uM after 24 hrs by flow cytometry analysis; type: functional
RXF 393 = experiment: Cytotoxicity against human […] cells; type: functional
K562 [17] = experiment: Inhibition of G2/M phase related Cyclin B protein expression in human K562 cells at 20 uM by Western blotting analysis; type: functional, cell-based
NCI-H226 = experiment: Cytotoxicity against human NCI-H226 cells; type: functional
UACC-257 = experiment: Cytotoxicity against human UACC257 cells; type: functional
HCC 2998 = experiment: Cytotoxicity against human HCC2998 cells; type: functional
PC-3 = experiment: Cytotoxicity against human PC3 cells; type: functional
[18] = read-out: LC50 (the source's name)

For `C(#Cc1ccccc1C#Cc1ccccn1)c1ccc(OCCCCCCOc2ccc(C#Cc3ccccc3C#Cc3ccccn3)cc2)cc1`, the GI50 (HT-29) was 7.89 µM, the CC50 (HT-29; [18]) was 27 µM and the GI50 (SNB-75) was 5.13 µM. It also gave a CC50 (SNB-75; [18]) of 31.3 µM, a GI50 (NCI-H460) of 1.69 µM and a CC50 (NCI-H460; [18]) of 18.7 µM. It also gave a GI50 (T47D) of 2.35 µM, a CC50 (T47D; [18]) greater than 50 µM and a GI50 (MDA-MB-435) of 1.54 µM. The CC50 (MDA-MB-435; [18]) was 21.7 µM, the GI50 (M14) was 7.47 µM and the CC50 (M14; [18]) was 41.6 µM. For the same compound, the GI50 (SN12C) was 6.55 µM, the CC50 (SN12C; [18]) was 32.7 µM and the GI50 (NCI-H23) was 7.97 µM. It also gave a CC50 (NCI-H23; [18]) greater than 50 µM, an Activity (K562 [1]) of 26.6% and a GI50 (DU-145) of 6.14 µM. The CC50 (DU-145; [18]) was 24.9 µM, the Activity (K562 [2]) was 35.8% and the GI50 (SK-MEL-5) was 2.3 µM. It also gave a CC50 (SK-MEL-5; [18]) of 20.5 µM, a GI50 (SF-539) of 2.38 µM and a CC50 (SF-539; [18]) of 21.3 µM. The GI50 (U-251) was 5.63 µM, the CC50 (U-251; [18]) was 24.1 µM and the GI50 (A549) was 6.41 µM. It also gave a CC50 (A549; [18]) of 43.2 µM, a GI50 (BT-549) of 3.45 µM and a CC50 (BT-549; [18]) of 22.7 µM. For the same compound, the GI50 (HL-60) was 0.09 µM, the CC50 (HL-60; [18]) was 2.7 µM and the GI50 (OVCAR-3) was 2.14 µM. The CC50 (OVCAR-3; [18]) was 21.3 µM, the GI50 (UO-31) was 8.51 µM and the CC50 (UO-31; [18]) was greater than 50 µM. The GI50 (EKVX) was 4.33 µM, the CC50 (EKVX; [18]) was 22.9 µM and the GI50 (UACC-62) was 0.47 µM. It also gave a CC50 (UACC-62; [18]) of 16.4 µM, a GI50 (SNB-19) of 6 µM and a CC50 (SNB-19; [18]) of 26.2 µM. For the same compound, the GI50 (COLO 205) was 8.18 µM, the CC50 (COLO 205; [18]) was 30.9 µM and the GI50 (SK-MEL-28) was 5.73 µM. It also gave a CC50 (SK-MEL-28; [18]) of 24.3 µM, an Activity (K562 [3]) of 23% and a GI50 (OVCAR-5) of 3.56 µM. The CC50 (OVCAR-5; [18]) was 23.4 µM, the GI50 (NCI/ADR-RES) was 2.3 µM and the CC50 (NCI/ADR-RES; [18]) was greater than 50 µM. The GI50 (SF-295) was 1.24 µM, the CC50 (SF-295; [18]) was 15.8 µM and the Activity (K562 [4]) was 52.1%. The GI50 (786-0) was 7.45 µM, the CC50 (786-0; [18]) was greater than 50 µM and the GI50 (ACHN) was 1.34 µM. It also gave a CC50 (ACHN; [18]) of 19.6 µM, an Activity (K562 [5]) of 8.77% and a GI50 (K562 [6]) of 1.38 µM. For the same compound, the CC50 (K562 [6]; [18]) was 22.8 µM, the Activity (K562 [7]) was 13.7% and the GI50 [8] was 0.62 µM. The CC50 [8, 18] was greater than 50 µM, the GI50 (HOP-62) was 6.31 µM and the CC50 (HOP-62; [18]) was 38.8 µM. For the same compound, the GI50 (HCT-116) was 8.69 µM, the CC50 (HCT-116; [18]) was greater than 50 µM and the Activity (K562 [9]) was 15.54%. The GI50 [10] was 5.41 µM, the CC50 [10, 18] was 34.6 µM and the GI50 (MCF7) was 1.91 µM. For the same compound, the CC50 (MCF7; [18]) was 21.8 µM, the GI50 (CAKI-1) was 5.42 µM and the CC50 (CAKI-1; [18]) was 23.8 µM. The Activity (K562 [11]) was 49.2%, the GI50 (OVCAR-4) was 1.91 µM and the CC50 (OVCAR-4; [18]) was 23.4 µM. It also gave a GI50 (SK-OV-3) of 7.05 µM, a CC50 (SK-OV-3; [18]) of 42 µM and a GI50 (LOX IMVI) of 0.27 µM. For the same compound, the CC50 (LOX IMVI; [18]) was 18.4 µM, the GI50 (SW-620) was 4 µM and the CC50 (SW-620; [18]) was 22.7 µM. The GI50 (HCT-15) was 2.78 µM, the CC50 (HCT-15; [18]) was 22 µM and the Activity (K562 [12]) was 8.57%. For the same compound, the Activity (K562 [13]) was 15%, the GI50 (SF-268) was 3.63 µM and the CC50 (SF-268; [18]) was 22.7 µM. For the same compound, the GI50 (MOLT-4) was 0.37 µM, the CC50 (MOLT-4; [18]) was 28 µM and the GI50 (MDA-MB-231) was 2.67 µM. The CC50 (MDA-MB-231; [18]) was 23.5 µM, the GI50 (NCI-H522) was 2.87 µM and the CC50 (NCI-H522; [18]) was 38.4 µM. The Activity (K562 [14]) was “Active”, the Activity (K562 [15]) was 24.9% and the GI50 (KM12) was 1.38 µM. The CC50 (KM12; [18]) was 20.8 µM, the GI50 (CCRF-CEM) was 0.04 µM and the CC50 (CCRF-CEM; [18]) was greater than 50 µM. It also gave an Activity (K562 [16]) of 59.7%, a GI50 (RXF 393) of 7.65 µM and a CC50 (RXF 393; [18]) of 27.9 µM. The Activity (K562 [17]) was “Active”, the GI50 (NCI-H226) was 6.53 µM and the CC50 (NCI-H226; [18]) was 30.3 µM. The GI50 (UACC-257) was 7.11 µM, the CC50 (UACC-257; [18]) was 31.4 µM and the GI50 (HCC 2998) was 7.21 µM. The CC50 (HCC 2998; [18]) was 26.9 µM, the GI50 (PC-3) was 4.46 µM and the CC50 (PC-3; [18]) was 29.2 µM.
`COc1cc2c(c(OC)c1OC)-c1ccc(OC)c(=O)cc1[C@@H](NC(C)=O)CC2` [COLCHICINE] gave an Activity (K562 [2]) of 74.6%, an Activity (K562 [11]) of 16.6% and an Activity (K562 [12]) of 14.59%. The Activity (K562 [13]) was 8.8%.
